Laboratory results as given in patent publication US20240417428A1, “POLYPEPTIDE FOR INHIBITING TRPM8 AND USE THEREOF” (ZHEJIANG UNIVERSITY, priority 2021, published 2024).
“Also recorded” adds a separate entry of the source. Where a SMILES comes first, the peptide text is derived from it.

How the values were obtained:
[1] = biological target: T1, Nav1.5 (Homo sapiens, UniProt Q14524); assay: Electrophysiological recording of Nav1.5 sodium current; type: cell-based
T1 construct: expressed in transfected cells; host or cells: HEK293T
Method: (§1) HEK293T cells were cultured in Dulbecco's modified Eagle culture medium under a 37° C., 5% CO2 environment, 10% fetal bovine serum, penicillin (100 U/mL), and streptomycin ([…]) was needed to add into the culture medium. Transient transfection was conducted by using Lipo 2000 (Invitrogen) transfection kit and following the instruction manual.
(§2) Electrophysiological experiment recordings were performed on the cells within 24˜48 h of transient transfections. Specifically, single channel electrophysiological recordings were performed within 8 h after transfection.
(§3) Measurement of the cell currents was respectively performed in the whole-cell recording mode, inside-out recording mode or outside-out recording mode with a HEKA EPC10 amplifier. In the whole cell electrophysiological recordings, glass microelectrodes made of borosilicate material were fire-polished to a original electrode resistance of about 3-6 MΩ. Serial resistance was compensated by 60%. The whole cell electrophysiological recordings were performed at ±80 mV. For single channel electrophysiological recordings, glass microelectrodes were fire-polished to a higher resistance of 6-8 MΩ2. Current signal was sampled at 10 kHz and filtered at 2.9 kHz. Membrane potential of the cell membrane would be clamped at +80 mV. All electrophysiological recordings were performed at room temperature (22° C.) (the maximum variation is 1° C.). […]

[2] = biological target: T2, TRPM8 (Mus musculus, UniProt Q8R4D5); assay: Whole-cell electrophysiological recording, menthol-activated TRPM8 in transfected HEK293T cells; type: cell-based; parameters: expressed in transfected cells; host or cells: HEK293T; conditions: whole-cell recording, menthol activation of TRPM8; read-out: half-inhibitory concentration (IC50) inhibiting TRPM8
Method: as §1, §2, §3

[3] = Mice body temperature measurement; type: in vivo; conditions: 30 μg/g body weight i.v., up to 24 h
Method: A digital thermometer (FT3400) was used for body temperature measurement of mice. Adult CD1 male mice were placed into an environmental room maintained at a constant temperature of 22±1° C. Mice were injected with DeC-1.2 (30 mg/kg body weight) via the tail vein to assess the effect of DeC-1.2 on body temperature. Body temperature was measured before treatment (baseline, BL) and at 5 min, 15 min, 0.5, 1, 2, 6 and 24 hours following DeC-1.2 (30 mg/kg, i.v.) administration. The test probe of the thermometer was inserted into the anus of the mouse approximately 2 cm, and the body temperature was recorded after the temperature display value was stable.

[4] = biological target: T3, Nav1.7 (Homo sapiens, UniProt Q15858); assay: Electrophysiological recording of Nav1.7 sodium current; type: cell-based
T3 construct: expressed in transfected cells; host or cells: HEK293T
Method: as §1, §2, §3

[5] = biological target: T2, TRPM8; assay: Inside-out single-channel recording of cold-activated TRPM8 (16° C.) at +80 mV; type: cell-based; parameters: expressed in transfected cells; host or cells: HEK293T; conditions: DeC-1.2 100 μM at 16° C.
Method: as §1, §2
as §3, with “mV.” for “mV. All electrophysiological recordings were performed at room temperature (22° C.) (the maximum variation is 1° C.).”
There were different bath and pipette solutions prepared for different ion channels current measurement. […]

[6] = system: CCI-induced static allodynia; assay: Chronic constriction injury (CCI) model of neuropathic pain: static allodynia; type: in vivo; conditions: CCI rats
Text: Male Sprague Dawley rats (purchased from Shanghai SLAC Laboratory Animals, LLC, 7 weeks old at the beginning of the experiment, n=7-10 per treatment) were used. CCI status was formed according to the method of Bennett G J and Xie Y K (Pain 1988, 33:87-107). Rats were anesthetized by intraperitoneal injection of sodium pentobarbital. The left common sciatic nerve was made to be exposed in the middle of the thigh in a state deprived of adherent tissue, and 4-0 silk thread (Ethicon Inc.) was utilized around it and four passes were loosely ligated at intervals of approximately 1 mm. Sham surgery was performed in the same manner except for sciatic nerve ligation. CCI surgery was performed after 2-3 weeks as described in Field M J et al. (Pain 1999, 83:303-311) documented, static allodynia was evaluated by Von Frey Hairs (VFH). Before starting the experiment, the experimental animals were acclimatized to the grid bottom cage. […] Each VFH was pressed against the phasic paw for 6 seconds, or until a withdrawal response occurred. When one withdrawal response occurred, the experiment was repeated by pressing the VFH at a weaker pressure until no withdrawal response occurred. The minimum pressure required to induce a response was recorded as a withdrawal paw threshold (PWT). If the experimental animal responded below an innocuous 1.4 g VFH, it was determined to be in static allodynia. […]

T2 sequence (Q8R4D5 whole entry): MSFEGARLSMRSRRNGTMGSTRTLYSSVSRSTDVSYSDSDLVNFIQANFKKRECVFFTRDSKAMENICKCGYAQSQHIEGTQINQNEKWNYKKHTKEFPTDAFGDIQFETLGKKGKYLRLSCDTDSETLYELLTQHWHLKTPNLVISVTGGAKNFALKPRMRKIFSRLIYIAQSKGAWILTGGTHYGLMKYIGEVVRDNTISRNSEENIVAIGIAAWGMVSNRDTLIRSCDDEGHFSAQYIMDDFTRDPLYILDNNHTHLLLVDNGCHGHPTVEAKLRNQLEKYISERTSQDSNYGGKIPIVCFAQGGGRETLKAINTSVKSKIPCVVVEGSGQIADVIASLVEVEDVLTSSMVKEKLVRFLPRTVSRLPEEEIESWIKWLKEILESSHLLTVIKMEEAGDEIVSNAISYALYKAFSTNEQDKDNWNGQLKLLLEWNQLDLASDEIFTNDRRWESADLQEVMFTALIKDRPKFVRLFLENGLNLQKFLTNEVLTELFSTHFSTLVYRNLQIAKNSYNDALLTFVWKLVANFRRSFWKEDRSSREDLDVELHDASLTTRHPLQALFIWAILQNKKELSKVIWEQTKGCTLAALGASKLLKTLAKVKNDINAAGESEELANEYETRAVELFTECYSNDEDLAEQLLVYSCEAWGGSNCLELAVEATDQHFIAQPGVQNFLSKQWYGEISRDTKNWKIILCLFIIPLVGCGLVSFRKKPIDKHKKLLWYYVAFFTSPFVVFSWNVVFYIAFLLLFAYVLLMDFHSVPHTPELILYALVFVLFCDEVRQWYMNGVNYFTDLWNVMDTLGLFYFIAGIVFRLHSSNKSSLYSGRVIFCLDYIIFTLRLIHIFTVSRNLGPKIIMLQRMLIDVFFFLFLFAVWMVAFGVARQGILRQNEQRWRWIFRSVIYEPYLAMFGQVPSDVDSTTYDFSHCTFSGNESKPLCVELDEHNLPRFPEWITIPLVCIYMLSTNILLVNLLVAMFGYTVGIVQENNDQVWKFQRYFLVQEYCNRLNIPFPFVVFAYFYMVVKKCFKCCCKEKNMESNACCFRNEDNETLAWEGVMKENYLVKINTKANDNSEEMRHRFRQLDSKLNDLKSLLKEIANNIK
T3 sequence (Q15858 whole entry): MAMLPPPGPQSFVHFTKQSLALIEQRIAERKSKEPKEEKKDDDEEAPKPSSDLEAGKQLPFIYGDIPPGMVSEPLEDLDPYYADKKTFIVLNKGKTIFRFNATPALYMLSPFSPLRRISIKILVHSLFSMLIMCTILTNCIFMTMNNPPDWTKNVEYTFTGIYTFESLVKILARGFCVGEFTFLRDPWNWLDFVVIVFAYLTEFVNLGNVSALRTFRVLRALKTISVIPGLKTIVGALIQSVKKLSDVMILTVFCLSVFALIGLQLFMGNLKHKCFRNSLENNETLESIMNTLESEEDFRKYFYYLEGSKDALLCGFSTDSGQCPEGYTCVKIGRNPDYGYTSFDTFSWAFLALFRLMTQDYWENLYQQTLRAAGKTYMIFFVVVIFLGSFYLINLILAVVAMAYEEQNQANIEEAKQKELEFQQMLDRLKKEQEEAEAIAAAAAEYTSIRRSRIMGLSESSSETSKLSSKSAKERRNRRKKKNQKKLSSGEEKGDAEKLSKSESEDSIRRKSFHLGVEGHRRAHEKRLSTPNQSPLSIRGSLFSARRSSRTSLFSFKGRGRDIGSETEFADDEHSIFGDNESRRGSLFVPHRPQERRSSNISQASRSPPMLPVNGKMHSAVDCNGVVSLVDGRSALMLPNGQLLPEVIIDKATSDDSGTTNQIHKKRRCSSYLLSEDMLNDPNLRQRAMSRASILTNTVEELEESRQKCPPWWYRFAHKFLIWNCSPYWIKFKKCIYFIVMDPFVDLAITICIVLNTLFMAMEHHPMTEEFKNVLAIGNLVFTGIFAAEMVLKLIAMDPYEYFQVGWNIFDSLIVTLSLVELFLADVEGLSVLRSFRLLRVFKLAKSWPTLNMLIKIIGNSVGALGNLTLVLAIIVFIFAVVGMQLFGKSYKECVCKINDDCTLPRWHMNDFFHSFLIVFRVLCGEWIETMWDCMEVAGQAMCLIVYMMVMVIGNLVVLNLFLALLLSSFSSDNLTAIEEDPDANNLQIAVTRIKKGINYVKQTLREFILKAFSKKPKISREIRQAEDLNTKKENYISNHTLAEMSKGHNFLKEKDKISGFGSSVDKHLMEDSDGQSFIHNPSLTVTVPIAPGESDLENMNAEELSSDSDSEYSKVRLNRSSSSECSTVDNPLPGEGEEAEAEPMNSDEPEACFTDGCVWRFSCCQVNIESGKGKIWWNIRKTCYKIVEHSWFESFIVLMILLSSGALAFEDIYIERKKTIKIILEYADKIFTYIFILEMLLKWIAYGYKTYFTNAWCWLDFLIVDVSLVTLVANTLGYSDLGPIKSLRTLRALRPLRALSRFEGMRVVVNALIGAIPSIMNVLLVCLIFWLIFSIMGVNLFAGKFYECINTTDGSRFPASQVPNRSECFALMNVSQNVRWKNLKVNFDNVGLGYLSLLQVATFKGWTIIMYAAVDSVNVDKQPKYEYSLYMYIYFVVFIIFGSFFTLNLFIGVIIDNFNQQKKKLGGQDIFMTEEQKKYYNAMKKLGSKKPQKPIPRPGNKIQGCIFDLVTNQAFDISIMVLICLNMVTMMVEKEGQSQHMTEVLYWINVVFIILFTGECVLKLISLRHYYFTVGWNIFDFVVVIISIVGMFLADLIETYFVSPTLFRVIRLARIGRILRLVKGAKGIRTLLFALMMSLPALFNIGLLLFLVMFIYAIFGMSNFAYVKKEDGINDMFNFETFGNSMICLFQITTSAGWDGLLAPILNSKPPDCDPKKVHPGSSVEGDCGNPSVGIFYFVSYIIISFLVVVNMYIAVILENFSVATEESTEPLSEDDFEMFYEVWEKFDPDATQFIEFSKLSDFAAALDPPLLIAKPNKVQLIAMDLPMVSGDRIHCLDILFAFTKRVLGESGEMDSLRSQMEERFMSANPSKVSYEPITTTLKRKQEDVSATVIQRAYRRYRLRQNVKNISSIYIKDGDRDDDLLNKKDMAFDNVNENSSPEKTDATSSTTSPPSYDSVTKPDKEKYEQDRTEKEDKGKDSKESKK
T1 sequence (Q14524 whole entry): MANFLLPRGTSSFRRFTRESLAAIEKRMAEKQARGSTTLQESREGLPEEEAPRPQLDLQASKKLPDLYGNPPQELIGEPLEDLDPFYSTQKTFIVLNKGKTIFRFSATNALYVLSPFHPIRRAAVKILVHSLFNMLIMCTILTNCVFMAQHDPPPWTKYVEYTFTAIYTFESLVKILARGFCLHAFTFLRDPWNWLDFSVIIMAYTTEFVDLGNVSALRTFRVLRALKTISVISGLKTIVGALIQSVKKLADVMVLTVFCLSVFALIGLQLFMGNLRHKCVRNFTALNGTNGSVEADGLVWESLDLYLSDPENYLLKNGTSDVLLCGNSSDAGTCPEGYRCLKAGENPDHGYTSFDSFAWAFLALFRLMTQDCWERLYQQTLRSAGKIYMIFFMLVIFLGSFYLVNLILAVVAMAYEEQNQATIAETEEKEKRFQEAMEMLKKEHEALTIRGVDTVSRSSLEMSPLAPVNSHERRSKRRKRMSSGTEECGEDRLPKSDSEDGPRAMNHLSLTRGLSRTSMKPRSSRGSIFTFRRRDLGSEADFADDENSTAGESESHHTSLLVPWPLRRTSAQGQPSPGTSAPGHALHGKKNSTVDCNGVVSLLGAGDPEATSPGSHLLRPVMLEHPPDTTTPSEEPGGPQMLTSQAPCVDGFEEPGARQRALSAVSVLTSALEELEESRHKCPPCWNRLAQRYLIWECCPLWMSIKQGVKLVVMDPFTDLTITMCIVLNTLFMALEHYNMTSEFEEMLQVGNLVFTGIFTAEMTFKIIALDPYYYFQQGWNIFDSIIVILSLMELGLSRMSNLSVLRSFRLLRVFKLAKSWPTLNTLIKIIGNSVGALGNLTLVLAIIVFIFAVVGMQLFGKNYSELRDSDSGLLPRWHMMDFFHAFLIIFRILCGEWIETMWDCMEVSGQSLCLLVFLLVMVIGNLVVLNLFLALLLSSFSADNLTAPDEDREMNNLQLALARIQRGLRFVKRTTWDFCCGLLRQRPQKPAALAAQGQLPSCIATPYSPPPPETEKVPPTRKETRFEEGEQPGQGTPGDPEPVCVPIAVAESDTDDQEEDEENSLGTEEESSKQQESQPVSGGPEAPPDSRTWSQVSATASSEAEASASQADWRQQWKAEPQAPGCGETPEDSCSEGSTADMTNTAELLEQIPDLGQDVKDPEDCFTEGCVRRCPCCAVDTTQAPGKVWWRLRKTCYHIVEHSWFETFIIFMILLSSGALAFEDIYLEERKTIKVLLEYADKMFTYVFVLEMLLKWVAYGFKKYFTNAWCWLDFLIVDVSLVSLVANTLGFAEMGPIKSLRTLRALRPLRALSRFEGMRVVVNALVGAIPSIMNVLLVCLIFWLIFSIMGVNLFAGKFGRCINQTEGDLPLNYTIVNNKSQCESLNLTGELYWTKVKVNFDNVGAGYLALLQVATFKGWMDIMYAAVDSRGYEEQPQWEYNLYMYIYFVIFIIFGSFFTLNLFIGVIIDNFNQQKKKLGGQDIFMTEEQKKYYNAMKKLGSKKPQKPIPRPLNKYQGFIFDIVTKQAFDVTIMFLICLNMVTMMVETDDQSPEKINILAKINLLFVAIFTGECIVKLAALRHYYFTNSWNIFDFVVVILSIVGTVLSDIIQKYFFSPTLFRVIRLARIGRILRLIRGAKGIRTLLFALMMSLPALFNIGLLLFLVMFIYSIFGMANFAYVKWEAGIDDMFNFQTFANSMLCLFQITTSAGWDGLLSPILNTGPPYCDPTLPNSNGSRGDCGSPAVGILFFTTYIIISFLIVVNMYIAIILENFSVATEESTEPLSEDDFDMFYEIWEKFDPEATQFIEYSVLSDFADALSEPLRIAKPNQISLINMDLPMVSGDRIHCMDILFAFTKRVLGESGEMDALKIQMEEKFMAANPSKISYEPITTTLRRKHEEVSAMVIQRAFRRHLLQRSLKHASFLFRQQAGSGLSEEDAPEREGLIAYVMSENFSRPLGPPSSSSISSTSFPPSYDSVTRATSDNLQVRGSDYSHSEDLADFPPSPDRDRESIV

SMILES: C[C@@H]1NC(=O)[C@H](CCCNC(=N)N)NC(=O)[C@H](CC(=O)O)NC(=O)[C@H](CCCNC(=N)N)NC(=O)[C@H](CCCNC(=N)N)NC(=O)[C@@H](N)CSSC[C@@H](C(=O)O)NC(=O)[C@H](CCCNC(=N)N)NC(=O)[C@H](CCC(N)=O)NC(=O)[C@H](CCCNC(=N)N)NC(=O)[C@H](Cc2ccc(O)cc2)NC(=O)[C@H](Cc2c[nH]cn2)NC(=O)[C@H](CCCNC(=N)N)NC1=O [DeC-1.2, CRRDRARHYRQRC] (HELM PEPTIDE1{C.R.R.D.R.A.R.H.Y.R.Q.R.C}$PEPTIDE1,PEPTIDE1,1:R3-13:R3$$$V2.0; N-terminus and C-terminus assumed)
- IC50 [1]: > 100 µM
- inhibition of Nav channels ([1]; Nav1.5): none of the TRP channels and Nav channels were inhibited
- IC50 [2]: 0.0045 ± 0.003 µM
- effect on body temperature [3]: did not significantly alter body temperature
- IC50 [4]: > 100 µM
- inhibition of Nav channels ([4]; Nav1.7): none of the TRP channels and Nav channels were inhibited
- effect on open probability of cold-activated TRPM8 [5]: does not change significantly; also recorded: did not decrease the open probability
- effect on single-channel conductance of cold-activated TRPM8 [5]: does not change significantly; also recorded: did not further reduce the single-channel conductance
- activity against static allodynia (von Frey hairs) [6]: exhibited strong activity
